IC50 data for 20 molecules are collected here from US20230143612A1 (Arbutus Biopharma Corporation, priority 2020, published 2023).

By IC50 is commonly meant the concentration needed to halve the response being measured. Read a low IC50 as inhibition by little substance.

Chain of PD-L1 His protein / PD-1 Fc protein (Q9NZQ7 19-238 limits assumed): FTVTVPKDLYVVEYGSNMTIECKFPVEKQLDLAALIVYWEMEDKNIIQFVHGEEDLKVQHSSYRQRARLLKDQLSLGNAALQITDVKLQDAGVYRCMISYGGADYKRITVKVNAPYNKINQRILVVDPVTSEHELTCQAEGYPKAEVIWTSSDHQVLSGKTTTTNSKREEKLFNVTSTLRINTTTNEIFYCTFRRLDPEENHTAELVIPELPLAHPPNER

The experiment has as its target PD-L1 His protein / PD-1 Fc protein (Homo sapiens, UniProt Q9NZQ7). Put plainly: HTRF Assay (PD-1/PD-L1 interaction). It counts as binding. The following applies: PD-L1 His 6 nM, PD-1 Fc 6 nM. A digest of the protocol:
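Compounds tested from 20 μM down to 0.001 μM (3-fold) against 6 nM PD-L1 His and 6 nM PD-1 Fc, 15 min room temperature incubation. Detection after 1 h at room temperature with Tb cryptate anti-6HIS and XL665 anti-human IgG reagents (mixture at 0.35 nM and 6.7 nM), HTRF signal.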
For orientation: Time-resolved FRET reads energy transfer from a long-lived donor to a nearby acceptor.
Molecule `COc1nc(-c2cccc(-c3cccc(-c4ccc5c(CNCCN6CCCC6=O)cn(C)c5n4)c3Cl)c2Cl)ccc1CNC[C@@H]1CCC(=O)N1` [Example 414, 1-[2-[[6-[2-Chloro-3-[2-chloro-3-[6-methoxy-5-[[[(2S)-5-oxopyrrolidin-2-yl]methylamino]methyl]-2-pyridyl]phenyl]phenyl]-1-methyl-pyrrolo[2,3-b]pyridin-3-yl]methylamino]ethyl]pyrrolidin-2-one] displayed a half-inhibitory concentration (IC50) of 170 nM. Turning to `COc1nc(-c2cccc(-c3cccc(-c4ccc5c(CNC6CCN(C(C)=O)CC6)cn(C)c5n4)c3Cl)c2Cl)ccc1CNC[C@@H]1CCC(=O)N1` [Example 415, (5S)-5-[[[6-[3-[3-[3-[[(1-Acetyl-4-piperidyl)amino]methyl]-1-methyl-pyrrolo[2,3-b]pyridin-6-yl]-2-chloro-phenyl]-2-chloro-phenyl]-2-methoxy-3-pyridyl]methylamino]methyl]pyrrolidin-2-one], the IC50 stood at 220 nM. Then `Cn1cc(CNC[C@@H]2CCC(=O)N2)c2ccc(-c3cccc(-c4cccc(-c5ccn6c(=O)c(CNC[C@@H]7CCC(=O)N7)cnc6c5)c4Cl)c3Cl)nc21` [Example 416, 8-[2-Chloro-3-[2-chloro-3-[1-methyl-3-[[[(2S)-5-oxopyrrolidin-2-yl]methylamino]methyl]pyrrolo[2,3-b]pyridin-6-yl]phenyl]phenyl]-3-[[[(2S)-5-oxopyrrolidin-2-yl]methylamino]methyl]pyrido[1,2-a]pyrimidin-4-one], with 71 nM. Then `Cn1cc(CNC[C@@H]2CCC(=O)N2)c2ccc(-c3cccc(-c4cccc(-c5ccc6c(CNC[C@@H]7CCC(=O)N7)cn(C)c6n5)c4Cl)c3Cl)nc21` [Example 417, (5S)-5-[[[6-[2-Chloro-3-[2-chloro-3-[1-methyl-3-[[[(2S)-5-oxopyrrolidin-2-yl]methylamino]methyl]pyrrolo[2,3-b]pyridin-6-yl]phenyl]phenyl]-1-methyl-pyrrolo[2,3-b]pyridin-3-yl]methylamino]methyl]pyrrolidin-2-one], with 32 nM; and `COc1cc(-c2cccc(-c3cccc(-c4ccc(CNC[C@@H]5CCC(=O)N5)c(OC)n4)c3Cl)c2Cl)cc2c1CN(C[C@H](C)O)CC2` [Example 418, (S)-5-((((6-(2,2′-Dichloro-3′-(2-((S)-2-hydroxypropyl)-8-methoxy-1,2,3,4 tetrahydroisoquinolin-6-yl)-[1,1′-biphenyl]-3-yl)-2-methoxypyridin-3-yl)methyl)amino)methyl)pyrrolidin-2-one], with 23 nM; and `COc1cc(-c2cccc(-c3cccc(-c4ccc(CNC[C@@H]5CCC(=O)N5)c(OC)n4)c3Cl)c2Cl)cc2c1CN(C[C@@H](C)O)CC2` [Example 419, (S)-5-((((6-(2,2′-Dichloro-3′-(2-((R)-2-hydroxypropyl)-8-methoxy-1,2,3,4-tetrahydroisoquinolin-6-yl)-[1,1′-biphenyl]-3-yl)-2-methoxypyridin-3-yl)methyl)amino)methyl)pyrrolidin-2-one], with 26 nM. In turn, `COc1nc(-c2cccc(-c3cccc(-c4cnc5c(CNC[C@@H]6CCC(=O)N6)c(C)nn5c4)c3Cl)c2Cl)ccc1CNC[C@@H]1CCC(=O)N1` [Example 420, (S)-5-((((6-(2,2′-Dichloro-3′-(2-methyl-3-(((((S)-5-oxopyrrolidin-2-yl)methyl)amino)methyl)pyrazolo[1,5-a]pyrimidin-6-yl)-[1,1′-biphenyl]-3-yl)-2-methoxypyridin-3-yl)methyl)amino)methyl)pyrrolidin-2-one] returned an IC50 of 0.6 nM.

`COc1nc(-c2cccc(-c3cccc(-c4ccc5c(=O)nc(CNC[C@@H]6CCC(=O)N6)[nH]c5c4)c3Cl)c2Cl)ccc1CNC[C@@H]1CCC(=O)N1` [Example 421, 7-(2,2′-Dichloro-3′-(6-methoxy-5-(((((S)-5-oxopyrrolidin-2-yl)methyl)amino)methyl)pyridin-2-yl)-[1,1′-biphenyl]-3-yl)-2-(((((S)-5-oxopyrrolidin-2-yl)methyl)amino)methyl)quinazolin-4(1H)-one] gave an IC50 of 14 nM. Then `COc1nc(-c2cccc(-c3cccc(-c4ccc5nc(CNC[C@@H]6CCC(=O)N6)ncc5c4)c3Cl)c2Cl)ccc1CNC[C@@H]1CCC(=O)N1` [Example 422, (S)-5-((((6-(2,2′-Dichloro-3′-(2-(((((S)-5-oxopyrrolidin-2-yl)methyl)amino)methyl)quinazolin-6-yl)-[1,1′-biphenyl]-3-yl)-2-methoxypyridin-3-yl)methyl)amino)methyl)pyrrolidin-2-one], with 4.1 nM; and `COc1cc(-c2cccc(-c3cccc(-c4ccc(CNC[C@@H]5CCC(=O)N5)c(OC)n4)c3Cl)c2Cl)cc2c1CCN(C[C@@H]1CCC(=O)N1)C2` [Example 424, (S)-5-((((6-(2,2′-Dichloro-3′-(5-methoxy-2-(((S)-5-oxopyrrolidin-2-yl)methyl)-1,2,3,4-tetrahydroisoquinolin-7-yl)-[1,1′-biphenyl]-3-yl)-2-methoxypyridin-3-yl)methyl)amino)methyl)pyrrolidin-2-one], with 27 nM.

Molecule `COc1nc(-c2cccc(-c3cccc(-c4cc(F)c5c(c4)CCN(C[C@@H]4CCC(=O)N4)C5)c3Cl)c2Cl)ccc1CNC[C@@H]1CCC(=O)N1` [Example 425, (S)-5-((6-(2,2′-Dichloro-3′-(6-methoxy-5-(((((S)-5-oxopyrrolidin-2-yl)methyl)-amino)-methyl)-pyridin-2-yl)-[1,1′-biphenyl]-3-yl)-8-fluoro-3,4-dihydroisoquinolin-2(1H)-yl)methyl)pyrrolidin-2-one] returned a concentration for half-maximal inhibition (IC50) of 8.3 nM. In the case of `COc1nc(-c2cccc(-c3cccc(-c4ccc5c(n4)CCN(C[C@@H]4CCC(=O)N4)C5)c3Cl)c2Cl)ccc1CNC[C@@H]1CCC(=O)N1` [Example 426, (S)-5-((((6-(2,2′-Dichloro-3′-(6-(((S)-5-oxopyrrolidin-2-yl)-methyl)-5,6,7,8-tetrahydro-1,6-naphthyridin-2-yl)-[1,1′-biphenyl]-3-yl)-2-methoxypyridin-3-yl)-methyl)-amino)-methyl)pyrrolidin-2-one] it was 0.1 nM; in that of `COc1nc(-c2cccc(-c3cccc(-c4ccc5c(c4Cl)CN(C[C@@H]4CCC(=O)N4)CC5)c3Cl)c2Cl)ccc1CNC[C@@H]1CCC(=O)N1` [Example 427, (S)-5-((8-Chloro-7-(2,2′-dichloro-3′-(6-methoxy-5-(((((S)-5-oxopyrrolidin-2-yl)methyl)-amino)-methyl)-pyridin-2-yl)-[1,1′-biphenyl]-3-yl)-3,4-dihydroisoquinolin-2(1H)-yl)methyl)pyrrolidin-2-one], 5.2 nM. Then `COc1nc(-c2cccc(-c3cccc(-c4ccc5c(c4F)CN(C[C@@H]4CCC(=O)N4)CC5)c3Cl)c2Cl)ccc1CNC[C@@H]1CCC(=O)N1` [Example 428, (S)-5-((7-(2,2′-Dichloro-3′-(6-methoxy-5-(((((S)-5-oxopyrrolidin-2-yl)methyl)-amino)methyl)-pyridin-2-yl)-[1,1′-biphenyl]-3-yl)-8-fluoro-3,4-dihydroisoquinolin-2(1H)-yl)methyl)-pyrrolidin-2-one], with 140 nM; and `O=C1CC[C@@H](CNCc2nc3cc(-c4cccc(-c5cccc(-c6ccn7c(=O)c(CNC[C@@H]8CCC(=O)N8)cnc7c6)c5Cl)c4Cl)ccn3c2Cl)N1` [Example 429, 8-[2-Chloro-3-[2-chloro-3-[3-chloro-2-[[[(2S)-5-oxopyrrolidin-2-yl]methylamino]methyl]imidazo[1,2-a]pyridin-7-yl]phenyl]phenyl]-3-[[[(2S)-5-oxopyrrolidin-2-yl]methylamino]methyl]pyrido[1,2-a]pyrimidin-4-one], with 240 nM. In the case of `O=C1CC[C@@H](CNCc2nc3cc(-c4cccc(-c5cccc(-c6ccn7c(Cl)c(CNC[C@@H]8CCC(=O)N8)nc7c6)c5Cl)c4Cl)ccn3c2Cl)N1` [Example 430, (5S)-5-[[[3-Chloro-7-[2-chloro-3-[2-chloro-3-[3-chloro-2-[[[(2S)-5-oxopyrrolidin-2-yl]methylamino]methyl]imidazo[1,2-a]pyridin-7-yl]phenyl]phenyl]imidazo[1,2-a]pyridin-2-yl]methylamino]methyl]pyrrolidin-2-one] it was 170 nM. Take `COc1cc(-c2cccc(-c3cccc(-c4ccn5c(=O)c(CNC[C@@H]6CCC(=O)N6)cnc5c4)c3Cl)c2Cl)nc(Cl)c1CNC[C@@H]1CCC(=O)N1` [Example 431, 8-(2,2′-Dichloro-3′-(6-chloro-4-methoxy-5-(((((S)-5-oxopyrrolidin-2-yl)methyl)-amino)-methyl)pyridin-2-yl)-[1,1′-biphenyl]-3-yl)-3-(((((S)-5-oxopyrrolidin-2-yl)methyl)amino)methyl)-4H-pyrido[1,2-a]pyrimidin-4-one]: half-maximal inhibition (IC50) was put at 180 nM. `COc1nc(-c2cccc(-c3cccc(-c4cnc5c(c4)CCCC5NC[C@@H]4CCC(=O)N4)c3Cl)c2Cl)ccc1CNC[C@@H]1CCC(=O)N1` (stereo partly drawn) [Example 432, (5S)-5-(((3-(2,2′-Dichloro-3′-(6-methoxy-5-(((((S)-5-oxopyrrolidin-2-yl)-methyl)-amino)methyl)-pyridin-2-yl)-[1,1′-biphenyl]-3-yl)-5,6,7,8-tetrahydroquinolin-8-yl)amino)-methyl)-pyrrolidin-2-one]: the IC50 turned out to be 270 nM.

With `COc1nc(-c2cccc(-c3cccc(-c4ccc5c(n4)CCC[C@@H]5NC[C@@H]4CCC(=O)N4)c3Cl)c2Cl)ccc1CNC[C@@H]1CCC(=O)N1` [Example 435, (S)-5-((((6-(2,2′-Dichloro-3′-((S)-5-((((S)-5-oxopyrrolidin-2-yl)methyl)amino)-5,6,7,8-tetrahydroquinolin-2-yl)-[1,1′-biphenyl]-3-yl)-2-methoxypyridin-3-yl)methyl)amino)methyl)pyrrolidin-2-one], inhibition was half-maximal at 23 nM (IC50). `COc1nc(-c2cccc(-c3cccc(-c4cc5c(=O)n(C)c(CN(C)C[C@H](C)O)nn5c4)c3Cl)c2Cl)ccc1CNC[C@@H]1CCC(=O)N1` [Example 436, 6-(2,2′-dichloro-3′-(6-methoxy-5-(((((S)-5-oxopyrrolidin-2-yl)methyl)amino)methyl)pyridin-2-yl)-[1,1′-biphenyl]-3-yl)-2-((((S)-2-hydroxypropyl)(methyl)amino)methyl)-3-methylpyrrolo[2,1-f][1,2,4]triazin-4(3H)-one] had an IC50 of 26 nM.
